Where two headings read alike, the source gives them in different places.
Experiments:
Phosphorylated eIF4E = assay: peIF4E signaling cellular assay (CisBio peIF4E HTRF); format: cell-based; conditions: 2 hrs incubation at 37° C., 12-point curve 20 μM to 0.1 nM; read-out: pEI4IE signaling activity
Experimental: Phosphorylated eIF4E is assayed using the CisBio peIF4E HTRF® assay kit (CisBio, catalogue No. 64EF4PEG). Cells are plated in 96-well tissue-culture treated plate in appropriate growth medium (90 μL). Compounds (10×) are diluted using 3-fold serial dilutions in cell culture medium and added to cells. Plates are incubated for 2 hrs at 37° C. The cell supernatant is carefully removed either by aspirating supernatant or by flicking the plate. Immediately 50 μL of supplemented lysis buffer (1×) is added and incubated for at least 30 minutes at room temperature under shaking. After homogenization by pipeting up and down, 16 μL of cell lysate is transferred from the 96-well cell-culture plate to a 384-well small volume white plate. 4 μL of premixed antibody solutions (vol/vol) is prepared in the detection buffer and added. The plate is covered with a plate sealer and incubated overnight at room temperature. The fluorescence emissions at two different wavelengths are read (665 nm and 620 nm) on a Wallac Victor2. Emission ratios are converted into percent inhibitions and imported into GraphPad Prism software. […] IC50 values are determined using a nonlinear regression model available in GraphPad Prism 5.
To this end, IC50 values of less than 0.001 μM are labelled as “+++”, from 0.001 to 0.01 μM are labelled as “++”, and greater than 0.01 μM are labelled as “+” (NA means “not available”).

[1] = High throughput thermodynamic solubility procedure; format: physicochemical; conditions: for solubility in fasted state simulated gastric fluid (FaSSGF), in words: pH value of 1.6; for solubility at 18 h: thermodynamic from solid, 18 hours incubation, theoretical maximum 10 mM
Experimental: In a 96-well plate, 10 mM DMSO stocks (50-100 uL) of each compound were dried under heated nitrogen flow using a SPE-96 plate dryer (upper flow rate=50 L/min, temperature=60° C., lower flow rate=20 L/min, temperature=80° C.). […] Compounds prepared as the free base were assessed in conditions with and without one equivalent of TFA added. The theoretical maximum concentrations of the aqueous solutions were 10 mM. Each well was capped and incubated for a period of 18 hours at room temperature or 37° C. Mixing of the solutions during the incubation period was performed by either shaking the plate at 750 rpm or adding StirStix (stainless steel capillaries) and agitating the mixture using a rotary magnetic tumble stirrer. After the incubation period, aliquots from each well were filtered. Solubility of all samples were quantified following comparison to standards of known concentration by HPLC-UV.

PD-1 = PD-1 (CD279) expression on PHA/PMA-activated Jurkat T cells, flow cytometry; format: cell-based; conditions: Homo sapiens, percentage of inhibition of PD-1 positive cells at 10 μM, 48 hours
Experimental: To examine the effect of MNK inhibitors on PD-1 expression, Jurkat cells (Clone E6.1, ATCC, transformed T cells) were used, which express PD-1 when activated through T cell receptor (TCR) signaling. Briefly, Jurkat cells were grown in 1×RPMI with 1×Pen/Strep, and 10% FBS, then about 3×10^6 Jurkat cells were activated in presence of 1 μg/mL PHA (Sigma) and 50 ng/mL PMA (Sigma). Test Cells were treated simultaneously with various concentrations of an MNK inhibitor (0, 0.01, 0.1, 1, 3 and 10 μM). After 48 hours, culture supernatants were harvested and examined via sandwich ELISA for the presence of IL-2 using human IL-2 ELISA DuoSet (R&D Systems, Minneapolis, Minn.). The level of PD-1 on Jurkat cells was examined by incubating with human FcR block, then contacted with allophycocyanin (APC) conjugated anti-PD-1 antibody (5 μl per 100 μl volume of test, Biolegend, San Diego, CA) for 25 minutes at 4° C., without washing the cells, fixable dead cell stain (1:10,000; BD Biosciences, San Jose, CA) was added and incubated further for 10 minutes at 4° C. Cells were washed two times with flow buffer, and finally cells were fixed with fixation buffer for 15 minutes at 4° C. After fixation, cells were washed twice with flow buffer and re-suspended in flow buffer and assessed for fluorescence using BD Accuri C6 flow cytometer. Data were analyzed using the C6 cytometer software (BD Biosciences, San Jose, CA) or Attune Nxt Cytometer (Invitrogen, Carlsbad, CA).
Activation of Jurkat T cells with PHA and PMA induced the expression of PD-1 on the cell surface of about 25-30% of the stimulated Jurkat cells as compared to uninduced cells (Unstim) and induced a 1,000-fold increase in IL-2 cytokine production, respectively. […] Lastly, MNK inhibition by various different MNK inhibitors had no effect on cell viability. […] To this end, percentage of inhibition of PD-1 positive cells (10 μM) of more than 50% are labelled as “+++”, from 10% to 50% are labelled as “++”, and less than 10% are labelled as “+” (NA means “not available”).

[2] = Fasted-State Simulated Intestinal Fluid (FaSSIF), pH 6.5, fassif, Fasted-State Simulated Intestinal Fluid, read-out: Aqueous Solubility FaSSIF (pH 6.5)
[3] = deionized water, read-out: Aqueous Solubility DI H2O

Row | Compound | IC50 (Phosphorylated eIF4E) | solubility in fasted state simulated gastric fluid (FaSSGF), in words [1] | solubility at 18 h [1, 2] | solubility at 18 h [1, 3] | inhibition at 10 µM (PD-1)
1 | Cc1cc(Nc2ncnc(N)c2C)c(=O)n2c1C(=O)N[C@]21CCCN(C)C1 (stereo in doubt) [Compound 1Fa, (R)-6-((6-amino-5-methylpyrimidin-4-yl)amino)-1′,8-dimethyl-2H-spiro[imidazo[1,5-a]pyridine-3,3′-piperidine]-1,5-dione] | > 10 nM | excellent solubility | 125 µg/mL | > 1850 µg/mL | 10 to 50%
2 | Cc1cc(Nc2ncnc(N)c2C)c(=O)n2c1C(=O)NC21CNCCC1(C)C (centres unmarked) [Compound 3T] | > 10 nM | – | 500 µM | 10000 µM | 10 to 50%

Further lines, with some results ahead:

Row | IC50 (Phosphorylated eIF4E) | solubility in fasted state simulated gastric fluid (FaSSGF), in words [1] | solubility at 18 h [1, 2] | solubility at 18 h [1, 3] | Compound | inhibition at 10 µM (PD-1)
3 | 1 to 10 nM | excellent solubility | 88 µg/mL | > 1850 µg/mL | Cc1cc(Nc2ncnc(N)c2C)c(=O)n2c1C(=O)N[C@@]21CCCN(C)C1 (stereo in doubt) [Compound 1Fb, (S)-6-((6-amino-5-methylpyrimidin-4-yl)amino)-1′,8-dimethyl-2H-spiro[imidazo[1,5-a]pyridine-3,3′-piperidine]-1,5-dione] | 10 to 50%
4 | 1 to 10 nM | excellent solubility | 77 µg/mL | 1840 µg/mL | Cc1cc(Nc2ncnc(N)c2C#N)c(=O)n2c1C(=O)N[C@]21CCCN(C)C1 (single isomer, unassigned) [Compound 2Fa] | 10 to 50%
5 | 1 to 10 nM | – | 600 µM | 4200 µM | Cc1cc(Nc2ncnc(N)c2Cl)c(=O)n2c1C(=O)NC21CNCCC1(C)C (centres unmarked) [Compound 3S] | > 50%
